PMC12056667 (Chemical Science, 2025)
Read-outs that look alike come from different tables or passages of the source.

What was measured:
[1] = test system: Acinetobacter spp. NT3-1 – tet(X3); assay: microbe, parasite or virus in culture; format: cell-based; conditions: for MIC: Acinetobacter, read-out: Tet(X) Inhibitor MIC, alone; for Combination (Antibiotic/Inhibitor) MICs: inhibitor / Combination (Antibiotic/Inhibitor) MICs: antibiotic: lowest FICI
Protocol: (§1) MIC tests and checkerboard assays were performed in U-bottom, 96-well microtiter plates using a modified broth microdilution protocol following CLSI guidelines. Cation-adjusted Mueller-Hinton Broth (CAMHB) was prepared fresh on the day of testing.[74] In brief, assays were set up in a total volume of 100 μL per well and titrations comprised seven 2-fold dilutions of inhibitors and ten 2-fold dilutions of tigecycline in CAMHB. Bacterial colonies were selected from an overnight culture on MHA plates (supplemented with 0.2%w/vL-arabinose for E. coli TOP10 containing pBAD-TOPO-Tet(X4)) and were suspended in 0.9% saline solution to achieve a 0.5 McFarland standard. A 100 μL aliquot of this suspension was then diluted into 9.9 mL of CAMHB to yield approximately 1.5 × 10^6 cfu mL^−1. 50 μL of the suspension was then added to each well of a microtiter plates. Plates were incubated at 37 °C for 18 h. At least 2 replicates were conducted for each combination. E. coli TOP10 + pBAD-TOPO-Tet(X4) cells were grown in the absence and presence of 0.2%w/vL-arabinose. Analysis of the MIC and checkerboard results were carried out by visual inspection of growth, with and without resazurin dye, an oxidation–reduction indicator.[75] As a measure of synergy, fractional inhibitory concentration index (FICI) was calculated as FICA + FICB, where FICA and FICB are the MICcombination/MICalone for each agent, respectively.[76] Results were interpreted as follows: synergistic (<0.5), indifferent (1.0–4.0) or antagonistic (>4.0).[64] In cases where the MIC exceeded or was below the measured range, the borderline value was taken to calculate the FIC index.

[2] = test system: Salmonella enterica T-2a – tet(X4); assay: microbe, parasite or virus in culture; format: cell-based; conditions: for MIC: Salmonella enterica, read-out: Tet(X) Inhibitor MIC; for Combination (Antibiotic/Inhibitor) MICs: inhibitor / Combination (Antibiotic/Inhibitor) MICs: antibiotic: lowest FICI
Protocol: as §1

[3] = test system: E. coli TOP10 containing plasmid pBAD-TOPO-Tet(X4); assay: Broth microdilution MIC and checkerboard assay; format: cell-based, Escherichia coli; conditions: for MIC: Escherichia coli; for Combination (antibiotic/inhibitor) MIC: inhibitor: inhibitor in combination with tigecycline; for Combination (antibiotic/inhibitor) MIC: inhibitor / Combination (antibiotic/inhibitor) MIC: antibiotic / Combination (Antibiotic/Inhibitor) MICs: antibiotic / Combination (Antibiotic/Inhibitor) MICs: inhibitor: lowest FICI; for Combination (antibiotic/inhibitor) MIC: antibiotic: tigecycline in combination with the inhibitor
Method in brief: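 E. coli TOP10 with pBAD-TOPO-Tet(X4), […], tested by CLSI broth microdilution in CAMHB, ~1.5 × 10^6 cfu mL^−1 inoculum, 37 °C, 18 h. Checkerboard of seven 2-fold inhibitor dilutions × ten dilutions; growth read visually ± resazurin; FICI = FICA + FICB.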

[4] = test system: Escherichia coli T-24a – tet(X4); assay: microbe, parasite or virus in culture; format: cell-based; conditions: for MIC: Escherichia coli, read-out: Tet(X) Inhibitor MIC, alone; for Combination (Antibiotic/Inhibitor) MICs: inhibitor / Combination (Antibiotic/Inhibitor) MICs: antibiotic: lowest FICI
Protocol: as §1, with “In brief, assays were set up in a total volume of 100 μL per well and titrations comprised seven 2-fold dilutions of inhibitors and ten 2-fold dilutions of tigecycline in CAMHB.” left out

[5] = test system: Acinetobacter baumannii NT5-1 – tet(X5); assay: microbe, parasite or virus in culture; format: cell-based; conditions: for MIC: Acinetobacter baumannii, read-out: Tet(X) Inhibitor MIC; for Combination (Antibiotic/Inhibitor) MICs: inhibitor / Combination (Antibiotic/Inhibitor) MICs: antibiotic: lowest FICI
Protocol: as §1, with “In brief, assays were set up in a total volume of 100 μL per well and titrations comprised seven 2-fold dilutions of inhibitors and ten 2-fold dilutions of tigecycline in CAMHB.” left out

[6] = test system: Proteus penneri NT6-2 – tet(X6); assay: microbe, parasite or virus in culture; format: cell-based; conditions: for MIC: Proteus penneri, read-out: Tet(X) Inhibitor MIC; for Combination (Antibiotic/Inhibitor) MICs: inhibitor / Combination (Antibiotic/Inhibitor) MICs: antibiotic: lowest FICI
Protocol: as §1, with “In brief, assays were set up in a total volume of 100 μL per well and titrations comprised seven 2-fold dilutions of inhibitors and ten 2-fold dilutions of tigecycline in CAMHB.” left out

[7] = inhibitor in combination with tigecycline
[8] = tigecycline in combination with the inhibitor
[9] = read-out: Tet(X) Inhibitor MIC, alone, without L-arabinose induction
[10] = read-out: Tet(X) inhibitor MIC, alone, induced with 0.2%w/v L-arabinose
[11] = with tigecycline, 0.2%w/v L-arabinose
[12] = with tigecycline, without L-arabinose
[13] = with doxycycline, 0.2%w/v L-arabinose
[14] = with doxycycline, no L-arabinose
[15] = with tetracycline, 0.2%w/v L-arabinose
[16] = with tetracycline, no L-arabinose

Cc1c2c(c(O)c3c(O)cccc13)C(=O)[C@]1(O)C(=O)C(C(N)=O)=C(O)[C@@H](N(C)C)[C@@H]1C2 [Anhydrotetracycline]
2 µg/mL: MIC ([1]; Acinetobacter spp. NT3-1) | Combination (antibiotic/inhibitor) MIC: inhibitor ([3]; 0.2%w/v L-arabinose) | Combination (Antibiotic/Inhibitor) MICs: antibiotic [5, 8]
0.3: FICI ([1]; with tigecycline)
indifferent (indifferent (0.5-4.0)): Outcome ([2]; with tigecycline) | Outcome [3, 12] | Outcome ([4]; with tigecycline) | Outcome ([5]; with tigecycline) | Outcome ([6]; with tigecycline)
1 µg/mL: Combination (Antibiotic/Inhibitor) MICs: inhibitor [6, 7]
synergy (synergy (< 0.5)): Outcome ([1]; with tigecycline)
8 µg/mL: Combination (Antibiotic/Inhibitor) MICs: antibiotic [2, 8] | MIC [3, 9] | MIC [3, 10] | Combination (antibiotic/inhibitor) MIC: inhibitor ([3]; without L-arabinose)
4 µg/mL: Combination (Antibiotic/Inhibitor) MICs: antibiotic [4, 8] | Combination (Antibiotic/Inhibitor) MICs: inhibitor [5, 7] | MIC [6] | Combination (Antibiotic/Inhibitor) MICs: antibiotic [6, 8]
2: FICI [3, 12]
0.5: FICI ([5]; with tigecycline)
0.4: FICI [3, 11]
Synergy (synergy (≤0.5)): Outcome [3, 11]
16 µg/mL: Combination (Antibiotic/Inhibitor) MICs: inhibitor [2, 7] | MIC [5]
0.25 µg/mL: Combination (Antibiotic/Inhibitor) MICs: inhibitor [1, 7] | Combination (antibiotic/inhibitor) MIC: antibiotic ([3]; without L-arabinose)
32 µg/mL: MIC [2] | Combination (Antibiotic/Inhibitor) MICs: inhibitor [4, 7]
64 µg/mL: MIC ([4]; E. coli T-24a)
0.5 µg/mL: Combination (Antibiotic/Inhibitor) MICs: antibiotic [1, 8] | Combination (antibiotic/inhibitor) MIC: antibiotic ([3]; 0.2%w/v L-arabinose)
0.8: FICI ([2]; with tigecycline) | FICI ([4]; with tigecycline) | FICI ([6]; with tigecycline)

[H]/N=C(/NCCCCC)N/N=C/c1c[nH]c2ccc(OC)cc12 [Tegaserod]
1.0: FICI ([1]; with doxycycline) | FICI [3, 14] | FICI [3, 15] | FICI ([6]; with doxycycline) | FICI ([6]; with tetracycline)
2: FICI [3, 12]
indifferent (indifferent (0.5-4.0)): Outcome ([1]; with doxycycline) | Outcome ([1]; with tetracycline) | Outcome ([1]; with tigecycline) | Outcome ([2]; with doxycycline) | Outcome ([2]; with tetracycline) | Outcome ([2]; with tigecycline) | Outcome [3, 13] | Outcome [3, 14] | Outcome [3, 15] | Outcome [3, 16] | Outcome [3, 12] | Outcome ([4]; with doxycycline) | Outcome ([4]; with tetracycline) | Outcome ([4]; with tigecycline) | Outcome ([5]; with doxycycline) | Outcome ([5]; with tetracycline) | Outcome ([5]; with tigecycline) | Outcome ([6]; with doxycycline) | Outcome ([6]; with tetracycline) | Outcome ([6]; with tigecycline)
1.3: FICI ([5]; with tetracycline)
64 µg/mL: Combination (Antibiotic/Inhibitor) MICs: antibiotic ([3]; tetracycline with tegaserod, 0.2%w/v L-arabinose) | MIC [6]
128 µg/mL: Combination (Antibiotic/Inhibitor) MICs: antibiotic ([5]; tetracycline with tegaserod)
2 µg/mL: Combination (Antibiotic/Inhibitor) MICs: inhibitor [1, 7]
0.5-1: FICI ([3]; with tigecycline, 0.2%w/v L-arabinose, listed as tegaserod)
0.8: FICI ([1]; with tetracycline) | FICI ([2]; with doxycycline) | FICI ([2]; with tetracycline) | FICI [3, 13] | FICI [3, 11] | FICI ([4]; with tetracycline) | FICI ([4]; with tigecycline) | FICI ([6]; with tigecycline)
2–4 fold: reduction of the tigecycline MIC ([3]; at high concentrations of inhibitor, 0.2%w/v L-arabinose)
1 µg/mL: Combination (antibiotic/inhibitor) MIC: antibiotic ([3]; 0.2%w/v L-arabinose) | Combination (Antibiotic/Inhibitor) MICs: antibiotic [5, 8]
0.25 µg/mL: Combination (antibiotic/inhibitor) MIC: antibiotic ([3]; without L-arabinose)
32 µg/mL: MIC [2] | Combination (Antibiotic/Inhibitor) MICs: antibiotic ([2]; tetracycline with tegaserod) | Tet(X) inhibitor MIC ([4]; alone, E. coli T-24a) | Combination (Antibiotic/Inhibitor) MICs: antibiotic ([4]; tetracycline with tegaserod) | MIC [5] | Combination (Antibiotic/Inhibitor) MICs: inhibitor ([6]; tegaserod with doxycycline) | Combination (Antibiotic/Inhibitor) MICs: inhibitor ([6]; tegaserod with tetracycline)
16 to 64 µg/mL: MIC [3, 10]
8 µg/mL: Tet(X) inhibitor MIC ([1]; alone, Acinetobacter spp. NT3-1) | Combination (Antibiotic/Inhibitor) MICs: antibiotic ([2]; doxycycline with tegaserod) | Combination (Antibiotic/Inhibitor) MICs: inhibitor [2, 7] | Combination (Antibiotic/Inhibitor) MICs: antibiotic [2, 8] | Combination (Antibiotic/Inhibitor) MICs: antibiotic ([3]; doxycycline with tegaserod, no L-arabinose) | Combination (antibiotic/inhibitor) MIC: inhibitor ([3]; 0.2%w/v L-arabinose) | Combination (Antibiotic/Inhibitor) MICs: inhibitor ([3]; tegaserod with tetracycline, 0.2%w/v L-arabinose) | Combination (Antibiotic/Inhibitor) MICs: inhibitor [4, 7] | Combination (Antibiotic/Inhibitor) MICs: inhibitor ([5]; tegaserod with tetracycline) | Combination (Antibiotic/Inhibitor) MICs: antibiotic ([6]; doxycycline with tegaserod)
16 µg/mL: Combination (Antibiotic/Inhibitor) MICs: antibiotic ([1]; tetracycline with tegaserod) | Combination (Antibiotic/Inhibitor) MICs: inhibitor ([2]; tegaserod with doxycycline) | Combination (Antibiotic/Inhibitor) MICs: inhibitor ([2]; tegaserod with tetracycline) | MIC ([3]; read-out: Tet(X) Inhibitor MIC, alone, 0.2%w/v L-arabinose (Table S7)) | MIC [3, 9] | Tet(X) inhibitor MIC ([3]; alone, induced with 0.2%w/v L-arabinose) | Combination (Antibiotic/Inhibitor) MICs: antibiotic ([3]; doxycycline with tegaserod, 0.2%w/v L-arabinose) | Combination (antibiotic/inhibitor) MIC: inhibitor ([3]; without L-arabinose) | Combination (Antibiotic/Inhibitor) MICs: antibiotic ([3]; tetracycline with tegaserod, no L-arabinose) | MIC ([4]; E. coli T-24a) | Combination (Antibiotic/Inhibitor) MICs: inhibitor ([4]; tegaserod with doxycycline) | Combination (Antibiotic/Inhibitor) MICs: inhibitor ([4]; tegaserod with tetracycline) | Combination (Antibiotic/Inhibitor) MICs: antibiotic ([5]; doxycycline with tegaserod) | Combination (Antibiotic/Inhibitor) MICs: inhibitor [5, 7] | Combination (Antibiotic/Inhibitor) MICs: inhibitor [6, 7] | Combination (Antibiotic/Inhibitor) MICs: antibiotic ([6]; tetracycline with tegaserod)
Indifferent (indifferent (0.5–4.0)): Outcome [3, 11]
4 µg/mL: MIC ([1]; Acinetobacter spp. NT3-1) | Combination (Antibiotic/Inhibitor) MICs: antibiotic ([1]; doxycycline with tegaserod) | Combination (Antibiotic/Inhibitor) MICs: inhibitor ([1]; tegaserod with doxycycline) | Combination (Antibiotic/Inhibitor) MICs: inhibitor ([1]; tegaserod with tetracycline) | Combination (Antibiotic/Inhibitor) MICs: inhibitor ([3]; tegaserod with doxycycline, 0.2%w/v L-arabinose) | Combination (Antibiotic/Inhibitor) MICs: inhibitor ([3]; tegaserod with tetracycline, no L-arabinose) | Combination (Antibiotic/Inhibitor) MICs: antibiotic ([4]; doxycycline with tegaserod) | Combination (Antibiotic/Inhibitor) MICs: antibiotic [4, 8] | Combination (Antibiotic/Inhibitor) MICs: inhibitor ([5]; tegaserod with doxycycline) | Combination (Antibiotic/Inhibitor) MICs: antibiotic [6, 8]
0.5: FICI ([2]; with tigecycline)
2.0: FICI [3, 16]
0.5 µg/mL: Combination (Antibiotic/Inhibitor) MICs: antibiotic [1, 8] | Combination (Antibiotic/Inhibitor) MICs: inhibitor ([3]; tegaserod with doxycycline, no L-arabinose)
0.6: FICI ([1]; with tigecycline) | FICI ([4]; with doxycycline) | FICI ([5]; with doxycycline) | FICI ([5]; with tigecycline)
